Assay results from patent US5246949A, “Preparation for endermism containing dopamine derivatives” (Sansho Co., Ltd., priority 1989, dated 1993).
Where a name gives a salt, the structure may show the parent alone. Read-outs that look alike come from different tables or passages of the source.

How the values were obtained:
[1] = in vitro skin permeability test (horizontal membrane type in vitro diffusion cell, HPLC determination); conditions: for skin permeability on adding a lactic acid ester: Test Example 1, FIG. 1; for skin permeability on adding a higher alcohol: Test Examples 5 to 8, FIGS. 5 to 8, 10% by weight
Procedure: 100 mg of each dopamine derivative hydrochloride as shown in Table 1 was weighed and 900 mg of propylene glycol was added thereto to obtain a solution or suspension containing 10% by weight of each dopamine derivative hydrochloride. These solutions and suspensions were referred to as comparative samples a to e, respectively.
Then 50 mg (in the cases of invention samples A to D) or 100 mg (in the cases of invention samples E to H) of each lactic acid ester or fatty acid monoglyceride as shown in Table 1 was added thereto. Further, propylene glycol was added to make the total amount 1000 mg. Thus, a solution or suspension containing 10% by weight of each dopamine derivative hydrochloride was obtained. These solutions and suspensions were referred to as invention samples A to H.
100 mg of each dopamine derivative hydrochloride as shown in Table 2 was weighed and 900 mg of polyethylene glycol 400 was added thereto. Thus a solution or suspension containing 10% by weight of each dopamine derivative hydrochloride was obtained. These solutions and suspensions were referred to as comparative samples f to i respectively.
Further polyethylene […] was added thereto to make the total amount 1000 mg. Thus, a solution or suspension containing 10% by weight of each dopamine derivative hydrochloride was prepared. These solutions and suspensions were referred to as invention samples I to N, respectively.
The abdominal hair of a male Wister rat, weighing 170 to 200 g and 7 weeks of age, was removed under anesthesia. […] Next, the whole abdominal skin was cleansed with 70% ethanol and then peeled off under anesthesia.
The peeled skin was fixed on the lid of a horizontal membrane type in vitro diffusion cell (penetration area: 7.54 cm^2) in such a manner that the epidermis served as the donor face. As a receiver solution, 50 ml of physiological saline solution or a 30% aqueous solutioh of polyethylene glycol 400 was employed. On the donor side, 0.5 g of a solution of each sample was applied by adding dropwise. Then the lid was fixed in a receptor while paying attention so no bubbles remained in the derm side, followed by storing it in an incubator maintained at 32° C. The receptor solution was stirred with a stirrer and 0.5 ml portions thereof were collected with the lapse of time so as to determine the dopamine derivative contained therein. The determination was effected by high performance liquid chromatography. (iii) Test Results

[2] = oral or percutaneous; cited from earlier work
[3] = 5% aqueous solution of glyceryl monocaprylate; Okumura et al. 1989; cited from earlier work
[4] = cited from earlier work
[5] = oral drug; E. Lodola et al. 1986; cited from earlier work
[6] = SOL I. Rajifer et al. 1986; cited from earlier work
[7] = 10% by weight in propylene glycol, 32° C.
[8] = Test Examples 2 to 4, FIGS. 2 to 4, 10% by weight in propylene glycol, 32° C.

**Q.** With `CC(C)C(=O)Oc1ccc(CCN)cc1OC(=O)C(C)C.Cl` [3,4-di-O-isobutyryldopamine hydrochloride] as the compound, how does the “skin permeability on adding a lactic acid ester” value [1, 7] read?
**A.** Its value is “extremely elevated”.

**Q.** And the “skin permeability on adding a higher alcohol” value ([1]; 32° C.)?
**A.** Its value is “extremely elevated”.

**Q.** With `CNCCc1ccc(OC(=O)C(C)C)c(OC(=O)C(C)C)c1` [3,4-di-O-isobutyrylepinine hydrochloride] as the compound, how does the “skin permeability on adding a lactic acid ester or a fatty acid monoglyceride” value [1, 8] read?
**A.** Its value is “extremely elevated”.

**Q.** And the “skin permeability on adding a higher alcohol” value ([1]; 32° C.)?
**A.** The value was “extremely elevated”.

**Q.** Which “decomposition after penetrating into the skin” value [1] does the source give for `CCCC(=O)Oc1ccc(CCN)cc1OC(=O)CCC` [3,4-di-O-n-butyryldopamine hydrochloride] here?
**A.** Its value is “considerably decomposed”.

**Q.** And the “skin permeability on adding a lactic acid ester or a fatty acid monoglyceride” value [1]?
**A.** The value was “extremely elevated”.

**Q.** What does the source list for `Cl.NCCc1ccc(OC(=O)c2cccnc2)c(OC(=O)c2cccnc2)c1` [3,4-di-O-nicotinoyldopamine hydrochloride]?
**A.** skin permeability on adding a lactic acid ester or a fatty acid monoglyceride [1, 8]: extremely elevated; skin permeability on adding a higher alcohol ([1]; 32° C.): extremely elevated

**Q.** Which results are given for `CC(C)(C)C(=O)Oc1ccc(CCN)cc1OC(=O)C(C)(C)C.Cl` [3,4-di-O-pivaloyldopamine hydrochloride]?
**A.** skin permeability on adding a lactic acid ester [1, 7]: extremely elevated; skin permeability on adding a higher alcohol ([1]; 32° C.): extremely elevated

**Q.** Which “absorption when administered orally or percutaneously” value [2] does the source give for `NCCc1ccc(O)c(O)c1` [Dopamine] here?
**A.** The value was “scarcely absorbed”.

**Q.** Which “absorption when administered orally or percutaneously” value [2] does the source give for `CC(CCc1ccc(O)cc1)NCCc1ccc(O)c(O)c1` (centres unmarked) [dobutamine] here?
**A.** Its value is “scarcely absorbed”.

**Q.** With `Cl.NCCc1ccc(O)c(O)c1` [dopamine hydrochloride] as the compound, how does the “percutaneous penetration rate relative to dopamine hydrochloride alone” value [3] read?
**A.** Its value is 34 times.

**Q.** And the skin damage ([4]; if percutaneously absorbed)?
**A.** Its skin damage is “causes skin damage”.

**Q.** What about the “irritation to the skin” value ([4]; percutaneous) of the same compound?
**A.** Its value is “highly irritative to the skin”.

**Q.** With `CNCCc1ccc(OC(=O)C(C)C)c(OC(=O)C(C)C)c1` [ibopamine] as the compound, how does the half-life in plasma [5] read?
**A.** The half-life in plasma was 1.54 h.

**Q.** What about the “duration of the effect on improvement of the circulation (cardiac coefficient)” value [6] of the same compound?
**A.** The value was 3 to 6 h.
